Results on two compounds are retold here after patent US5036098A, “Butynylamine derivatives and their production” (Nippon Shinyaku Co., Ltd., priority 1988, dated 1991).

For series [1], the target named is detrusor muscles of excised rabbit bladder (Oryctolagus cuniculus, UniProt G1U308). The text has this: 1. Action upon detrusor muscles of excised rabbit bladder
(1) Anticholinergic action
The specimens were contracted by carbachol cumulation, and a reaction curve with respect to carbachol concentration was obtained.

Another series in a line: Acute toxicity. Also on record: species or system mice. The conditions noted are these: mouse, in vivo, po; mortality one week later, method of Weil. As for the experimental part:
ddY-Mice (male; 6 to 7 week age) were used as test animals (each group consisting of four mice). Each of the mice was fasted from the previous day (16 to 18 hours before), a drug being tested was orally administered by using a gastric tube, and LD50 value was calculated from the mortality one week later according to the method of Weil.

Another series is described as follows: in vivo. The conditions noted are these: rat, iv, 3 mg/kg. As for the experimental part:
4. Concentration of unchanged drug in the serum
A drug being tested was administered to an SD rat (male; 280 to 360 g) in a dose of 3 mg/kg (i.v.), blood samples were taken out at predetermined intervals, and the change in the concentration of said drug left unchanged in the serum was measured.

The test system of another series is rat bladder. The conditions noted are these: for Frequency (cycles of contraction per minute), 0.1 mg/kg (i.v.) / Frequency (cycles of contraction per minute), 0.3 mg/kg (i.v.) / Frequency (cycles of contraction per minute), 1.0 mg/kg (i.v.) / Frequency (cycles of contraction per minute), 3.0 mg/kg (i.v.): 0 to 15 minutes, cumulative administration; for Frequency (cycles of contraction per minute), 1.0 mg/kg (i.v.): *p < 0.05; for Frequency (cycles of contraction per minute), 3.0 mg/kg (i.v.): **p < 0.01; for Frequency (cycles of contraction per minute), before administration: before administration (baseline); for action to suppress the frequency of contraction: i.v., cumulative, result in words.

For series [2], the system named is detrusor muscles of excised rabbit bladder. Description: Ca++ antagonism upon detrusor muscles of excised rabbit bladder (calcium chloride contraction). Particulars: for pA2 value, Ca++ Antagonism: calcium chloride cumulation, Ca++-free, high KCl-modified Krebs' solution, excised rabbit detrusor.
The conditions of series [3]: prior art statement; cited from earlier work.

Each structure is given as a SMILES string. Where a name gives a salt, the structure may show the parent alone. Where only a bound is given, the exact number is not on record here.

detrusor muscles of excised rabbit bladder (Oryctolagus cuniculus, UniProt G1U308), sequence (G1U308 entry or part of it): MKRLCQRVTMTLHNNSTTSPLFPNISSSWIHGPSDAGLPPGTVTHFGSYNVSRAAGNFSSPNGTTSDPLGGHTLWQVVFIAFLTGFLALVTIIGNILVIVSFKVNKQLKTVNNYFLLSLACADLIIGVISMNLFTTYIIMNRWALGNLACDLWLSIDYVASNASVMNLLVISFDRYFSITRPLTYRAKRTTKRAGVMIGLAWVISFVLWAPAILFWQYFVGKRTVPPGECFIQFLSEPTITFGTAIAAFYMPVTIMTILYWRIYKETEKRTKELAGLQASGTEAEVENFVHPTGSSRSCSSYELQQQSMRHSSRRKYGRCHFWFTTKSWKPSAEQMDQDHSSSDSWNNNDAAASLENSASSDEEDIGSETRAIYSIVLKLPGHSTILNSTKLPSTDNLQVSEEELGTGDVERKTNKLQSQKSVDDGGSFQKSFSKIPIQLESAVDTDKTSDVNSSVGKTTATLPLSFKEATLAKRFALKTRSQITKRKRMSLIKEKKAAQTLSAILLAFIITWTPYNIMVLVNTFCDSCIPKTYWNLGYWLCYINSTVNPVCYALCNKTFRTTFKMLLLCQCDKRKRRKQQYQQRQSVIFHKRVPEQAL

The compound `CCN(CC)CC#CC(C)(C)OC(=O)C(O)(c1ccccc1)C1CCCCC1` (stereo not drawn) [Example 4, 4-diethylamino-1.1-dimethyl-2-butynyl α-cyclohexylα-phenylglycolate hydrochloride] showed a Kb in series [1] of 46.8 nM. In series [1] (ratio to oxybutynin), the “anticholinergic action compared with oxybutynin” value is 1/17. In “Acute toxicity”, this compound showed an LD50 at 168 h of 841 mg/kg. Moreover, the half-life in the series “in vivo” is 51 min. In the series with rat bladder, the “Frequency (cycles of contraction per minute), 0.1 mg/kg (i.v.)” value is recorded as 1.1 ± 0.3 cycles of contraction per minute; the “Frequency (cycles of contraction per minute), 0.3 mg/kg (i.v.)” value is listed as 0.8 ± 0.2 cycles of contraction per minute; the “Frequency (cycles of contraction per minute), 1.0 mg/kg (i.v.)” value was 0.3 ± 0.1 cycles of contraction per minute; the “Frequency (cycles of contraction per minute), 3.0 mg/kg (i.v.)” value is 0.0 ± 0.0 cycles of contraction per minute. Moreover, in the series with rat bladder, the “Frequency (cycles of contraction per minute), before administration” value is 1.3 ± 0.3 cycles of contraction per minute and the “action to suppress the frequency of contraction” value is listed as “dose-dependent action to suppress the frequency of contraction”. In addition, the minimal effective dose in the series on rat bladder (Rattus norvegicus, iv, read-out: doses showing action to suppress the frequency of contraction) is not below 0.1 mg/kg. In addition, the “pA2 value, Ca++ Antagonism” value in series [2] is recorded as 6.72. Also, the “Ca++ antagonism compared with oxybutynin” value in series [2] (ratio to oxybutynin) is recorded as 8.3 times.

In series [1], `CCN(CC)CC#CCOC(=O)C(O)(c1ccccc1)C1CCCCC1` (centres unmarked) [Oxybutynin, oxybutynin, reference compound] gave a Kb of 2.75 nM. Further, the half-life in “in vivo” was 16.8 min. In addition, the side effects result in series [3] was “exhibits side effects such as thirst”. In the series on rat bladder, the “Frequency (cycles of contraction per minute), 0.1 mg/kg (i.v.)” value was 1.1 ± 0.2 cycles of contraction per minute; the “Frequency (cycles of contraction per minute), 0.3 mg/kg (i.v.)” value is 1.0 ± 0.2 cycles of contraction per minute; the “Frequency (cycles of contraction per minute), 1.0 mg/kg (i.v.)” value is reported as 1.2 ± 0.1 cycles of contraction per minute; the “Frequency (cycles of contraction per minute), 3.0 mg/kg (i.v.)” value was 1.2 ± 0.2 cycles of contraction per minute. Further, in the series with rat bladder, the “Frequency (cycles of contraction per minute), before administration” value was 1.0 ± 0.1 cycles of contraction per minute and the “action to suppress the frequency of contraction” value was “no such action was observed”. Moreover, the “pA2 value, Ca++ Antagonism” value in series [2] stood at 5.80.

One may read the LD50 as the dose at which mortality reaches 50%. A word on the half-life: it is the time needed for the level to fall by half in the phase considered.
